Among the data in patent publication US9783527B2, “Indazole ureas and method of use” (AbbVie Inc., priority 2014, dated 2017) are IC50 values, retold here.

The target in this test is human Nav1.7 (Homo sapiens (Human), UniProt Q15858). The test is described as follows: FRET-based membrane potential assay, recombinant human sodium channel Nav1.7. Format: cell-based. The settings on record: HEK293 cells stably expressing recombinant human Nav1.7; depolarization with veratridine (EC80) + scorpion venom. Put shortly: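 IC50 derived by four-parameter Hill fit of percent inhibition of depolarization, measured as peak F440-480/F565-625 ratio over baseline. Stable human Nav1.7 HEK293 cells, dye-loaded with CC2-DMPE and DiSBAC2(3)/VABSC-1 at room temperature, received compound 3 min ahead of veratridine (EC80) plus scorpion venom.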
Sequence of human Nav1.7 (Q15858 whole entry): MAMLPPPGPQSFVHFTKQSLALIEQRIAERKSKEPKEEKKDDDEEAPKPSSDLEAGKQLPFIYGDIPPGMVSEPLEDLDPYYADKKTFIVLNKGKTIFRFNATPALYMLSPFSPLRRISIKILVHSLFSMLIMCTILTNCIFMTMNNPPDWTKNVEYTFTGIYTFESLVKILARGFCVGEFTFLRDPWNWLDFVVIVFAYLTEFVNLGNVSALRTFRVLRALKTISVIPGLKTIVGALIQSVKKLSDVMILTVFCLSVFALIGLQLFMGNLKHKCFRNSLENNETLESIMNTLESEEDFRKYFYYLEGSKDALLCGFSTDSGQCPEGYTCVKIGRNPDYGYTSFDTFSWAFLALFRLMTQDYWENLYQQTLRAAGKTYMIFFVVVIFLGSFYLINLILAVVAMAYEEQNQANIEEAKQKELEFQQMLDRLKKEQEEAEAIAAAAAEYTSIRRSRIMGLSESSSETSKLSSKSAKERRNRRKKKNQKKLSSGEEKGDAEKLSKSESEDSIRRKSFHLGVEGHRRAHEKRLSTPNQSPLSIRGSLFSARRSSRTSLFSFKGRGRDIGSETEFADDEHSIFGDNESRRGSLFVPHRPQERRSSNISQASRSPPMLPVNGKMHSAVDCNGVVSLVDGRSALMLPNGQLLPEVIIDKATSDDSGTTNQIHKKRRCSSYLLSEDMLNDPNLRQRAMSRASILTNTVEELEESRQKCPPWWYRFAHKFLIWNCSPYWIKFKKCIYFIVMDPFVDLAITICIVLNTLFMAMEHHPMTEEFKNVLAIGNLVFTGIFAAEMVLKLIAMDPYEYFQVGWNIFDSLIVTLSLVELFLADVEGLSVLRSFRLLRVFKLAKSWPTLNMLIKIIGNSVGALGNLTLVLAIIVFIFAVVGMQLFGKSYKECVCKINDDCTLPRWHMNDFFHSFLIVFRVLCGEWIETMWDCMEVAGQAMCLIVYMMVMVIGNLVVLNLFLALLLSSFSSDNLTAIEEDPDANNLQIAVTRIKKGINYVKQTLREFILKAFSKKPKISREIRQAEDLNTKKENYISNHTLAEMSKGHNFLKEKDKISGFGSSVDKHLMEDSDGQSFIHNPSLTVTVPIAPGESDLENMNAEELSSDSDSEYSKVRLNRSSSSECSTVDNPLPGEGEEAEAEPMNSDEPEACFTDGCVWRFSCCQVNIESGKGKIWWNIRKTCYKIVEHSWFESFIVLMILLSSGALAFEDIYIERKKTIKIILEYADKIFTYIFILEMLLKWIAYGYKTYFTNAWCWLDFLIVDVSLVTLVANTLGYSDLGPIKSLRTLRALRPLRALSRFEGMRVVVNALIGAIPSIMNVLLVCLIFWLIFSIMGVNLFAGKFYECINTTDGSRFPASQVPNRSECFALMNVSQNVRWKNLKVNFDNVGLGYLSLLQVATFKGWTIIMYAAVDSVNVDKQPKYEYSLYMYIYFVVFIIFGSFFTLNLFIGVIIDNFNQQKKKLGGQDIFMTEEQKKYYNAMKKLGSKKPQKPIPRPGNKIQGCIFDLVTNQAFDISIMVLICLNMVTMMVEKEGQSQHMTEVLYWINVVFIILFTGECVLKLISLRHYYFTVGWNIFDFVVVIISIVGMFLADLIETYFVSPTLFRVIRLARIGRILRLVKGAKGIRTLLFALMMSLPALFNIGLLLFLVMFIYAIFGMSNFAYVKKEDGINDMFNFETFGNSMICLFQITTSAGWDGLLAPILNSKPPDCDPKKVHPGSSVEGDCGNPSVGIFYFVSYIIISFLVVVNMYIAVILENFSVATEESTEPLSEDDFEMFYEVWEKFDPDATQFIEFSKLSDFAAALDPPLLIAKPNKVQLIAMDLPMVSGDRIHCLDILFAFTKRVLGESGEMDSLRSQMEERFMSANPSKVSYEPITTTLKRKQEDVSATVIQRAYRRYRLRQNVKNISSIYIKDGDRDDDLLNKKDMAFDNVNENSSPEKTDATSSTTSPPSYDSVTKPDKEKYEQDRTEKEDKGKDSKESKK
Regarding `CC(C)C[C@@H](O)CN1CCN(c2cccc3c2cnn3-c2ccccc2F)C1=O` [Example 155, 1-[1-(2-fluorophenyl)-1H-indazol-4-yl]-3-[(2R)-2-hydroxy-4-methylpentyl]imidazolidin-2-one], the IC50 was 1.88 µM. With `CC(C)C[C@H](O)CN1CCN(c2cccc3c2cnn3-c2ccccc2F)C1=O` [Example 156, 1-[1-(2-fluorophenyl)-1H-indazol-4-yl]-3-[(2S)-2-hydroxy-4-methylpentyl]imidazolidin-2-one] the figure was 1.35 µM. Turning to `O=C(CC1CCOC1)CN1CCN(c2cccc3c2cnn3-c2ccccc2F)C1=O` (stereo not drawn) [Example 157, 1-[1-(2-fluorophenyl)-1H-indazol-4-yl]-3-[2-oxo-3-(tetrahydrofuran-3-yl)propyl]imidazolidin-2-one], the IC50 worked out at 3.37 µM. Turning to `O=C1N(c2cncs2)CCN1c1cccc2c1cnn2-c1ccccc1F` [Example 158, 1-[1-(2-fluorophenyl)-1H-indazol-4-yl]-3-(1,3-thiazol-5-yl)imidazolidin-2-one], the IC50 amounted to 20 µM. Consider `CC[C@@H](CO)N1CCN(c2cccc3c2cnn3-c2ccccc2F)C1=O` [Example 159, 1-[1-(2-fluorophenyl)-1H-indazol-4-yl]-3-[(2S)-1-hydroxybutan-2-yl]imidazolidin-2-one], for which the IC50 came to 3.59 µM.

As for `CC[C@@H](O)CN1CCN(c2cccc3c2cnn3-c2ccccc2F)C1=O` [Example 160, 1-[1-(2-fluorophenyl)-1H-indazol-4-yl]-3-[(2R)-2-hydroxybutyl]imidazolidin-2-one], the IC50 was 3.51 µM. With `CC(C)(C)C(=O)CN1CCN(c2cccc3c2cnn3-c2ccccc2F)C1=O` [Example 161, 1-(3,3-dimethyl-2-oxobutyl)-3-[1-(2-fluorophenyl)-1H-indazol-4-yl]imidazolidin-2-one] the figure was 1.4 µM; with `CC(C)C(=O)CN1CCN(c2cccc3c2cnn3-c2ccccc2F)C1=O` [Example 162, 1-[1-(2-fluorophenyl)-1H-indazol-4-yl]-3-(3-methyl-2-oxobutyl)imidazolidin-2-one], 0.729 µM; with `CC(C)C(O)CN1CCN(c2cccc3c2cnn3-c2ccccc2F)C1=O` (stereo not drawn) [Example 163, 1-[1-(2-fluorophenyl)-1H-indazol-4-yl]-3-(2-hydroxy-3-methylbutyl)imidazolidin-2-one], 2.16 µM. Take `O=C(CN1CCN(c2cccc3c2cnn3-c2ccccc2F)C1=O)C1CCC1` [Example 164, 1-(2-cyclobutyl-2-oxoethyl)-3-[1-(2-fluorophenyl)-1H-indazol-4-yl]imidazolidin-2-one]: the IC50 is 0.635 µM.

`O=C1N(CC(O)C2CCC2)CCN1c1cccc2c1cnn2-c1ccccc1F` (stereo not drawn) [Example 165, 1-(2-cyclobutyl-2-hydroxyethyl)-3-[1-(2-fluorophenyl)-1H-indazol-4-yl]imidazolidin-2-one]: the IC50 came to 0.681 µM. With `O=C(C1CCC1)C(O)N1CCN(c2cccc3c2cnn3-c2ccccc2F)C1=O` (stereo not drawn) [Example 166, 1-(2-cyclobutyl-1-hydroxy-2-oxoethyl)-3-[1-(2-fluorophenyl)-1H-indazol-4-yl]imidazolidin-2-one] the figure was 0.435 µM.

As to `CC(C)C[C@@](C)(O)CN1CCN(c2cccc3c2cnn3-c2ccccc2F)C1=O` [Example 167, 1-[1-(2-fluorophenyl)-1H-indazol-4-yl]-3-[(2R)-2-hydroxy-2,4-dimethylpentyl]imidazolidin-2-one], the IC50 is 0.893 µM. The figure for `CC(C)C[C@](C)(O)CN1CCN(c2cccc3c2cnn3-c2ccccc2F)C1=O` [Example 168, 1-[1-(2-fluorophenyl)-1H-indazol-4-yl]-3-[(2S)-2-hydroxy-2,4-dimethylpentyl]imidazolidin-2-one] is 0.816 µM. As for `O=C1N(CC(=O)N2CCC[C@H]2C(F)(F)F)CCN1c1cccc2c1cnn2-c1ccccc1F` [Example 169, 1-[1-(2-fluorophenyl)-1H-indazol-4-yl]-3-{2-oxo-2-[(2S)-2-(trifluoromethyl)pyrrolidin-1-yl]ethyl}imidazolidin-2-one], the concentration for half-maximal inhibition (IC50) is 1.07 µM. With `COC[C@H]1CCCN1C(=O)CN1CCN(c2cccc3c2cnn3-c2ccccc2F)C1=O` [Example 170, 1-[1-(2-fluorophenyl)-1H-indazol-4-yl]-3-{2-[(2R)-2-(methoxymethyl)pyrrolidin-1-yl]-2-oxoethyl}imidazolidin-2-one] the figure was 0.795 µM; with `O=C1N(CC(=O)N2CCC[C@@H]2C(F)(F)F)CCN1c1cccc2c1cnn2-c1ccccc1F` [Example 171, 1-[1-(2-fluorophenyl)-1H-indazol-4-yl]-3-{2-oxo-2-[(2R)-2-(trifluoromethyl)pyrrolidin-1-yl]ethyl}imidazolidin-2-one], 0.285 µM; with `CC1(C)CCCN1C(=O)CN1CCN(c2cccc3c2cnn3-c2ccccc2F)C1=O` [Example 172, 1-[2-(2,2-dimethylpyrrolidin-1-yl)-2-oxoethyl]-3-[1-(2-fluorophenyl)-1H-indazol-4-yl]imidazolidin-2-one], 2.6 µM. On to `O=C(CN1CCN(c2cccc3c2cnn3-c2ccccc2F)C1=O)NCc1cccc(F)c1` [Example 173, N-(3-fluorobenzyl)-2-{3-[1-(2-fluorophenyl)-1H-indazol-4-yl]-2-oxoimidazolidin-1-yl}acetamide], for which the IC50 came out at 0.8 µM. As to `O=C(CN1CCN(c2cccc3c2cnn3-c2ccccc2F)C1=O)NCc1cc(F)ccc1F` [Example 174, N-(2,5-difluorobenzyl)-2-{3-[1-(2-fluorophenyl)-1H-indazol-4-yl]-2-oxoimidazolidin-1-yl}acetamide], the IC50 was 0.849 µM. The figure for `Cc1ccccc1CNC(=O)CN1CCN(c2cccc3c2cnn3-c2ccccc2F)C1=O` [Example 175, 2-{3-[1-(2-fluorophenyl)-1H-indazol-4-yl]-2-oxoimidazolidin-1-yl}-N-(2-methylbenzyl)acetamide] is 2.65 µM. With `C[C@@H](NC(=O)CN1CCN(c2cccc3c2cnn3-c2ccccc2F)C1=O)c1ccccc1` [Example 176, 2-{3-[1-(2-fluorophenyl)-1H-indazol-4-yl]-2-oxoimidazolidin-1-yl}-N-[(1R)-1-phenylethyl]acetamide] the figure was 0.983 µM.

As to `O=C(CN1CCN(c2cccc3c2cnn3-c2ccccc2F)C1=O)NCc1cc(F)cc(F)c1` [Example 177, N-(3,5-difluorobenzyl)-2-{3-[1-(2-fluorophenyl)-1H-indazol-4-yl]-2-oxoimidazolidin-1-yl}acetamide], the IC50 worked out at 0.965 µM.

With `C[C@H](NC(=O)CN1CCN(c2cccc3c2cnn3-c2ccccc2F)C1=O)c1ccccc1` [Example 178, 2-{3-[1-(2-fluorophenyl)-1H-indazol-4-yl]-2-oxoimidazolidin-1-yl}-N-[(1S)-1-phenylethyl]acetamide], the IC50 was 2 µM.

Consider `O=C1N(Cc2nc3ccccc3s2)CCN1c1cccc2c1cnn2-c1ccccc1F` [Example 179, 1-(1,3-benzothiazol-2-ylmethyl)-3-[1-(2-fluorophenyl)-1H-indazol-4-yl]imidazolidin-2-one], for which the half-maximal inhibitory concentration (IC50) was 15.4 µM. The figure for `CC(C)C(C)(O)CN1CCN(c2cccc3c2cnn3-c2ccccc2F)C1=O` (stereo not drawn) [Example 180, 1-[1-(2-fluorophenyl)-1H-indazol-4-yl]-3-(2-hydroxy-2,3-dimethylbutyl)imidazolidin-2-one] is 3.23 µM. Regarding `O=C1N(CC2CCCC2)CCN1c1cccc2c1cnn2-c1ccccc1F` [Example 181, 1-(cyclopentylmethyl)-3-[1-(2-fluorophenyl)-1H-indazol-4-yl]imidazolidin-2-one], the IC50 came out at 6.27 µM. Regarding `O=C1N(CC2CCCO2)CCN1c1cccc2c1cnn2-c1ccccc1F` (stereo not drawn) [Example 182, 1-[1-(2-fluorophenyl)-1H-indazol-4-yl]-3-(tetrahydrofuran-2-ylmethyl)imidazolidin-2-one], the IC50 was 2.62 µM. The figure for `O=C(CN1CCN(c2cccc3c2cnn3-c2ccccc2F)C1=O)C1CC1` [Example 183, 1-(2-cyclopropyl-2-oxoethyl)-3-[1-(2-fluorophenyl)-1H-indazol-4-yl]imidazolidin-2-one] is 2.93 µM; for `O=C1N(c2cccc3c2cnn3-c2ccccc2F)CCN1C1CCC1` [Example 184, 1-cyclobutyl-3-[1-(2-fluorophenyl)-1H-indazol-4-yl]imidazolidin-2-one] it is 1.06 µM; for `O=C1N(c2cccc3c2cnn3-c2ccccc2F)CCN1[C@H]1CO[C@@H](c2ccccc2F)C1` [Example 185, 1-[1-(2-fluorophenyl)-1H-indazol-4-yl]-3-[(3R,5R)-5-(2-fluorophenyl)tetrahydrofuran-3-yl]imidazolidin-2-one] it is 0.965 µM. With `CC(C)CC(O)CN1CCCN(c2cccc3c2cnn3-c2ccccc2F)C1=O` (stereo not drawn) [Example 186, 1-[1-(2-fluorophenyl)-1H-indazol-4-yl]-3-(2-hydroxy-4-methylpentyl)tetrahydropyrimidin-2(1H)-one] the figure was 1.41 µM. On to `C[C@H]1CCCN1C(=O)CN1CCCN(c2cccc3c2cnn3-c2ccccc2F)C1=O` [Example 187, 1-[1-(2-fluorophenyl)-1H-indazol-4-yl]-3-{2-[(2S)-2-methylpyrrolidin-1-yl]-2-oxoethyl}tetrahydropyrimidin-2(1H)-one], for which the IC50 is 1.91 µM. Take `CC(C)CC(=O)CN1CCCN(c2cccc3c2cnn3-c2ccccc2F)C1=O` [Example 188, 1-[1-(2-fluorophenyl)-1H-indazol-4-yl]-3-(4-methyl-2-oxopentyl)tetrahydropyrimidin-2(1H)-one]: the IC50 amounted to 1.66 µM.

With `O=C1N(CC2CC2(F)F)CCN1c1cccc2c1cnn2-c1ccccc1F` (stereo not drawn) [Example 189, 1-[(2,2-difluorocyclopropyl)methyl]-3-[1-(2-fluorophenyl)-1H-indazol-4-yl]imidazolidin-2-one], the IC50 is 1.02 µM.

Turning to `O=C1N(c2cccc3c2cnn3-c2ccccc2F)CCN1c1cnn2cccnc12` [Example 190, 1-[1-(2-fluorophenyl)-1H-indazol-4-yl]-3-(pyrazolo[1,5-a]pyrimidin-3-yl)imidazolidin-2-one], the IC50 worked out at 1.09 µM.

The term IC50 denotes the concentration at which inhibition is half-maximal.
